“Also recorded” adds a separate entry of the source.
Experiments:
Pkd1−/− embryonic mice = Pkd1−/− embryonic mice with ADPKD; cited from earlier work
murine pkd1-null cells = details: cited from earlier work
[1] = tested on: Human ADPKD cyst-lining epithelial cells; test: Cell proliferation assay (Promega Cell Titer 96 MTT); type: cell-based; details: 0.1, 0.5, 1 uM KU-174 for 72 h
Experimental: Primary cultures of human ADPKD cyst-lining epithelial cells were established as described in Yamaguchi, T., et al., Calcium restores a normal proliferation phenotype in human polycystic kidney disease epithelial cells. J Am Soc Nephrol, 2006. 17(1): p. 178-87. Cystic tissue from ADPKD kidneys were minced and digested overnight in DMEM/F12 (1:1) mixture that contained 220 IU/ml type IV collagenase and 100 IU/ml penicillin G and 0.1 mg/ml streptomycin (P/S) (13). Collagenase digestion was stopped by the addition of FBS. […]
The novobiocin analog KU-174 was studied to determine the effect on cAMP and EGF-stimulated proliferation of ADPKD cyst-lining epithelial cells. Cell proliferation was determined by the Promega Cell Titer 96 MTT assay method as described in Yamaguchi, T., et al., Calcium restores a normal proliferation phenotype in human polycystic kidney disease epithelial cells. […] After 72 hours of treatment, cell proliferation was measured by adding the MTT assay reagent and stopping the reaction four hours later. Absorbance was read on a spectrophotometer at 570 nm. Optical densities were measured using a spectrophotometer. In each group, results were expressed as a percentage of the control group (not treated with KU-174).

ERK 1/2 = test: Inhibition of p-ERK in EGF stimulated ADPKD cells by Western blot; type: cell-based, human; details: for decrease in P-Erk (phosphorylation of ERK 1/2): EGF-stimulated ADPKD cells
Experimental: (§1) Human ADPKD cells were plated at a density of 1×10^5 cells per well in medium containing 1% FBS in a 6-well plate. Cells were serum-starved for 24 hours and treated with 25 ng/ml EGF to stimulate cell proliferation, then treated with increasing concentrations of KU-174. As a control for inhibition of the mTOR pathway, ADPKD cells were stimulated by EGF and treated with Rapamycin or LY294002. After 24 or 48 hours, cytoplasmic protein extracts were prepared by lysing cells in ice-cold lysis buffer (10 mM Tris-Cl pH 7.5, 150 mM NaCl, 2 mM EDTA pH 8.0, 1% Triton X-100, 0.5% NP-40, 25 mM glycerol 2-phosphate, 1 mM sodium orthovanadate, 1 mM phenylmethylsulfonyl fluoride, and 0.1% v/v Sigma protease inhibitor cocktail). Nuclei and other Triton-insoluble components were removed by high speed centrifugation. Protein concentration was measured using the Pierce BCA assay kit. 20 μg total protein was boiled with SDS sample buffer and fractionated on 7.5, 10 or 12.5% SDS-PAGE gels. Proteins were transferred to PVDF membranes and non-specific binding blocked with 5% powdered milk in TBS-T (10 mM Tris-Cl pH 7.5, 150 mM NaCl, and 0.1% Tween 20) for 1 h at room temperature. Blocked membranes were incubated with primary antibodies in 5% powdered milk or 5% BSA (for phospho-proteins) in TBS-T overnight at 4° C. Membranes were then washed three times with TBS-T and incubated with alkaline phosphatase-conjugated secondary antibodies in 5% milk in TBS-T for 30 min at room temperature. The membranes were washed three times with TBS-T, and protein bands were visualized using the CDP-star detection reagent (GE healthcare). Intensity was detected and quantitatively analyzed by the Fluor-S MAX multi-imager system (Bio-Rad).

mTOR pathway = test: Inhibition of mTOR pathway in EGF stimulated ADPKD cells by Western blot; type: cell-based, human
Experimental: as §1
Human ADPKD cells were plated at a density of 1×10^5 cells per well in medium containing 1% FBS in a 6-well plate. Cells were serum-starved for 24 hours and treated with 25 ng/ml EGF to stimulate cell proliferation, then treated with increasing concentrations of KU-174. As a control for inhibition of the mTOR pathway, ADPKD cells were stimulated by EGF and treated with Rapamycin or LY294002, (an inhibitor of phosphoinositide-3-kinases, PI3Ks). After 24 or 48 hours, cells were lysed and 20 μg total cell lysate analyzed by Western blotting. Blots were probed with antibodies against p-Akt (S473), Akt, p-TSC2 (S939), TSC2, p-mTOR (S2448), mTOR, p-S6K (T412 and T389; phospho-p70 S6 Kinase phosphorylated at T389 or T412) and S6K (p70 S6 kinase; p70S6K1). […] In the 1 μM KU-174 treated cell lysates, p-Akt was decreased by 64%, p-mTOR by 56%, and p-S6K isoforms p85 and p70 by 75% compared with control EGF treated cells and normalized with respect to the corresponding total protein (n=3). There was no change in p-TSC2 levels. […] The figures represent results from independent experiments using primary human ADPKD cells from three different kidneys.

[2] = tested on: Hsp90 client proteins CFTR, C-Raf, cdk4, ErbB2 and Akt; test: Hsp90 client protein levels in EGF stimulated human ADPKD cells by Western blot; type: cell-based
Experimental: as §1
Proteins from 20 μg total cell lysate were analyzed by Western blotting. Blots were probed with antibodies against Hsp90 and client proteins CFTR, C-Raf, cdk4, ErbB2 and Akt. GAPDH served as the internal control.

human ADPKD cells = test: Microcyst assay in collagen gel matrix; type: cell-based
Experimental: Microcyst assay was performed as described previously by Yamaguchi, T., et al., Calcium restores a normal proliferation phenotype in human polycystic kidney disease epithelial cells. J Am Soc Nephrol, 2006. 17(1): p. 178-87. Primary cultures of human ADPKD cells (4×10^3 cells/well) were dispersed within an ice-cold type I collagen matrix (Vitrogen; Collagen Corp., Palo Alto, Calif.) in wells of a 96-well culture plate. Warming the plate to 37° C. caused polymerization of the collagen, trapping the cells within the gel. A defined medium (DMEM/F12 with ITS, 5×10^−8M hydrocortisone, and 5×10^−5 M triiodothyronine) supplemented with 5 μM forskolin and 5 ng/ml EGF was added for 3 days to initiate cyst growth. Forskolin (FSK) is a small molecule agonist of adenylyl cyclase, the enzyme that makes cAMP. Thus, FSK treatment of cells increases the levels of intracellular cAMP. Fresh media containing EGF and forskolin plus 1 μM or 5 μM KU-174 were added for an additional 5-7 days. […] Gels containing cysts were fixed in 1% formaldehyde and cyst diameters were measured using a morphometric analysis system. Outer diameters of cross-sectional images of spherical cysts with distinct lumens were measured using an inverted microscope with a digital camera and video analysis software. The total surface area (SA) of the cysts within each well was calculated from the individual cyst diameters (cysts≧100 μm). KU-174 inhibits microcyst formation by ADPKD cells in a collagen gel matrix.

[3] = tested on: Pkd1+/− mouse metanephric kidneys; test: Metanephric organ culture; details: embryonic day 15.5 kidneys, 100 μM cAMP, 10 μM KU-174, four days
From the text: Pkd1^m1Bei mice were obtained from the Mutant Mouse Regional Resource Center (University of North Carolina, Chapel Hill, N.C.) and were stabilized onto a C57BL/6 background (>10 backcrosses). This mouse has a point mutation (T to G at 9248 bp) that causes an M to R substitution that affects the first transmembrane domain of polycystin-1 as described by Herron, B. J., et al., Efficient generation and mapping of recessive developmental mutations using ENU mutagenesis. Nat Genet, 2002. 30(2): p. 185-9.
Mouse metanephric kidneys were cultured according to methods described in Magenheimer, B. S., et al., Early embryonic renal tubules of wild-type and polycystic kidney disease kidneys respond to cAMP stimulation with cystic fibrosis transmembrane conductance regulator/Na(+),K(+),2Cl(−) Co-transporter-dependent cystic dilation. J Am Soc Nephrol, 2006. 17(12): p. 3424-37. Metanephroi were dissected from Pkd1+/− embryonic mice and placed on transparent Falcon […] cell culture inserts. […] Upon culturing (day 0) and approximately 24 h later (day 1) and each day after (days 2 to 4), kidneys were photographed using a 2× or 4× objective, and the images were acquired and analyzed using the analySIS imaging program (Soft Imaging System, Munster, Germany). […]

[4] = 48 h, 1 μM KU-174, compared to control EGF treated cells

## CC(C)[C@]12O[C@H]1[C@@H]1O[C@]13[C@]1(O[C@H]1C[C@H]1C4=C(CC[C@@]13C)C(=O)OC4)[C@@H]2O [Triptolide]
Pkd1−/− embryonic mice
  cyst formation: inhibit cyst formation
Murine pkd1-null cells
  cell growth: cause cell growth arrest

## COc1cccc(-c2cc(C(=O)Nc3cc4ccc(O[C@@H]5OC(C)(C)[C@H](OC)[C@@H](O)[C@H]5O)c(OC)c4oc3=O)ccc2OC)c1 [KU-174, N-(7-((2S,3R,4S,5R)-3,4-dihydroxy-5-methoxy-6,6-dimethyltetrahydro-2H-pyran-2-yloxy)-8-methoxy-2-oxo-2H-chromen-3-yl)-3′,6-dimethoxybiphenyl-3-carboxamide]
[1]; 25 ng/ml EGF
  proliferation of EGF-stimulated ADPKD cyst-lining epithelial cells (MTT assay): dose-dependent decrease; also recorded: significantly inhibited
[1]; 100 μM cAMP
  proliferation of cAMP-stimulated ADPKD cyst-lining epithelial cells (MTT assay): dose-dependent decrease; also recorded: significantly inhibited
ERK 1/2; 0.5 μM KU-174, 48 h
  decrease in P-Erk (phosphorylation of ERK 1/2): 70%
ERK 1/2; 0.5 μM and 1 μM KU-174, EGF-stimulated ADPKD cells
  total Erk levels: remained virtually unchanged
ERK 1/2; 1 μM KU-174, 48 h
  decrease in P-Erk (phosphorylation of ERK 1/2): 80%
ERK 1/2; increasing concentrations of KU-174, EGF-stimulated ADPKD cells
  inhibition of p-ERK: dose-dependent inhibition
mTOR pathway; 24 h, 1 μM KU-174
  p-S6K: slight decrease
mTOR pathway; 24 h of treatment, 50 nM to 1 μM KU-174, EGF-stimulated ADPKD cells
  change in phosphoproteins (P-mTOR, P-Akt, P-TSC2, P-S6K): no change
mTOR pathway; [4]
  decrease in P-Akt (S473): 64%
  decrease in P-S6K (isoforms p85 and p70): 75%
  decrease in P-mTOR (S2448): 56%
mTOR pathway; 48 h, both 0.5 and 1 μM KU-174
  decreasing the phosphoproteins: effective
mTOR pathway; EGF-stimulated ADPKD cells, KU-174 up to 1 μM, 48 h
  P-TSC2 (S939) levels: no change
mTOR pathway; at the concentrations examined (up to 1 μM KU-174)
  total Akt levels: did not appear to decrease
[2]; 24 h, 1 μM KU-174
  total levels of C-Raf: decreased
  total levels of CFTR: decreased
[2]; 48 h, both 0.5 and 1 μM KU-174
  all the client proteins examined (CFTR, C-Raf, cdk4, ErbB2): effective in decreasing
[2]; dose and time-dependent manner, ADPKD cells
  levels of the Hsp90 client proteins CFTR, ErbB2, c-Raf and Cdk4: decreases
Human ADPKD cells; 1 μM KU-174, EGF and forskolin, p<0.01
  inhibition in cyst growth (total cyst surface area per well): significant inhibition
Human ADPKD cells; 1 μM KU-174, n=6
  inhibition of cyst-formation induced by EGF and forskolin: more than 3 fold
Human ADPKD cells; 5 μM KU-174, EGF and forskolin, p<0.01
  cyst formation: completely eliminated
Human ADPKD cells; EGF and forskolin, 1 μM or 5 μM KU-174
  microcyst formation by ADPKD cells in a collagen gel matrix: dose-dependent inhibition; also recorded: reduces; also recorded: inhibits
[3]
  cyst burden / cyst formation in cAMP-treated metanephric kidneys: reduces the cyst burden; also recorded: reduction in cyst burden; also recorded: reduced cyst formation

From US20110082098A1, “NOVOBIOCIN ANALOGUES AND TREATMENT OF POLYCYSTIC KIDNEY DISEASE” (UNIVERSITY OF KANSAS, priority 2009, published 2011)
